Experimental findings from patent US11109593B2, “Isoxazolin-5-one derivative and herbicide containing same as active ingredient” (HOKKO CHEMICAL INDUSTRY CO., LTD., priority 2017, dated 2021) are described below.

What all share (format): in vivo
The subject of assay [1] is broad leaf weeds (Lindernia pyxidaria and Monochoria vaginalis). The assay is described as follows: Test Example 2: herbicidal effect test by treatment during growing period in paddy rice cultivation (seven days after seeding). Particulars: 120 g/10a active ingredient, assessed 14 days after treatment, dry weight vs untreated area. The procedure, abridged:
(§1)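 Herbicidal rate = (1 − treated/untreated mean dry weight) × 100, scored 14 days after application, two replicates per rate. Treatment: diluted emulsion dropped onto paddy water seven days after sowing, 120 g active ingredient per 10 ares, in a glass greenhouse.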

In assay [2] the test system is Echinochloa crus-galli. Described as above. To be noted: 120 g/10a active ingredient, assessed 14 days after treatment, dry weight vs untreated area. The procedure, abridged:
as §1

For assay [3], the system named is Scirpus juncoides. The description is as above. To be noted: 120 g/10a active ingredient, assessed 14 days after treatment, dry weight vs untreated area. The procedure, abridged:
as §1

The test system of assay [4] is broad leaf weeds (Lindernia pyxidaria and Monochoria vaginalis). The assay is described as follows: Test Example 1: herbicidal effect test by treatment of rice paddy soil (immediately after seeding). Particulars: 120 g/10a active ingredient, dry weight vs untreated area, 14 days after treatment. The procedure, abridged:
(§2)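 Puddled, fertilized (N:P:K=17:17:17) paddy soil in Wagner pots; seeds sown 0–1 cm deep, flooded to about 3 cm. Emulsifiable formulations diluted in water and dropped into the water immediately after seeding at 120 g active ingredient per 10 ares; greenhouse. Herbicidal rate from dry weight vs untreated at 14 days.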

The subject of assay [5] is Echinochloa crus-galli. The assay is described as above. To be noted: 120 g/10a active ingredient, dry weight vs untreated area, 14 days after treatment. The essentials: as §2
Assay [6] relates to Scirpus juncoides. The description is as above. Particulars: 120 g/10a active ingredient, dry weight vs untreated area, 14 days after treatment. The procedure, abridged:
as §2

The subject of assay [7] is southern crabgrass. The assay is described as follows: Test Example 4: herbicidal effect test by treatment of leave and stem in dry field farming (seven days after seeding). To be noted: 120 g/10a active ingredient; emulsion sprayed seven days after seeding; evaluated 14 days after treatment. How it is done: (§3) This test was conducted in a double system per one agent solution concentration area, and the herbicidal rates (%) were determined by the following equation (Math. 1) on 14 days after the treatment with the agents. Herbicidal Rate (%)={1-(Average Dry Weight (g) of Plant of Treated Area)/(Average Dry Weight (g) of Plant of Untreated Area)}×100 [Math. 1]
(§4) Herbicidal Effect Test by Treatment of Leave and Stem in Dry Field Farming
(§5) Pots with a size of 36 cm^2 were filled with a dry field farming soil (alluvium). The soil of the top layer of 1 cm and seeds of weeds, namely southern crabgrass, Echinochloa crus-galli, Chenopodium album and Amaranthus viridis, 20 seeds each, were evenly mixed, and the top layer was gently pressed. Emulsions prepared using the compounds in Table 6 below according to Formulation Example 5 were diluted with water seven days after seeding, and the water-diluted agent solutions were sprayed to the soil surfaces at a ratio of 100 liters per 10 ares. The converted amount of the applied active ingredient corresponded to 120 g per 10 ares. The herbicidal effects were evaluated by the same standard as that in Test Example 1 on 14 days after the treatment with the agents. […] The compound numbers in Table 6 are the same as those in Table 1 and Table 2 above.

For assay [8], the system named is Chenopodium album. The description is as above. Particulars: 120 g/10a active ingredient; emulsion sprayed seven days after seeding; evaluated 14 days after treatment. As to the method: as §3, §4, §5
The subject of assay [9] is Amaranthus viridis. Described as above. To be noted: 120 g/10a active ingredient; emulsion sprayed seven days after seeding; evaluated 14 days after treatment. How it is done:
as §3, §4, §5

Assay [10] concerns Echinochloa crus-galli. The description is as above. Particulars: 120 g/10a active ingredient; emulsion sprayed seven days after seeding; evaluated 14 days after treatment. How it is done: as §3, §4, §5
Assay [11] has as its system southern crabgrass. The assay is described as follows: Test Example 3: herbicidal effect test by treatment of dry field farming soil (one day after seeding). Particulars: 120 g/10a active ingredient, evaluated 14 days after treatment. The essentials: (§6)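 Seeds (20 each) mixed into top 1 cm of alluvium in pots, surface pressed. One day later, diluted emulsion sprayed onto soil, 100 L/10 a, 120 g a.i./10 a. Dry weight at 14 d vs untreated gave % herbicidal rate; n=2.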

In assay [12] the test system is Chenopodium album. The assay is described as above. Particulars: 120 g/10a active ingredient, evaluated 14 days after treatment. The procedure, abridged:
as §6

Assay [13] has as its system Amaranthus viridis. The assay is described as above. To be noted: 120 g/10a active ingredient, evaluated 14 days after treatment. The essentials:
as §6

Assay [14] has as its system Echinochloa crus-galli. Described as above. To be noted: 120 g/10a active ingredient, evaluated 14 days after treatment. The procedure, abridged: as §6

On to `Cc1c(Cc2cc(F)ccc2N(S(=O)(=O)C(F)(F)F)S(=O)(=O)C(F)(F)F)c(=O)on1Cc1ccccc1` [Compound 1-32], for which the “Herbicidal rate (%) Lindernia pyxidaria” value in [1] and in assay [4] was 80% in each case. For the same compound, the “Herbicidal rate (%) Monochoria vaginalis” value in assay [1] and in assay [4] was 90% each time. The “Herbicidal rate (%) Echinochloa crus-galli” value stood at 90% in assay [2] and 80% in assay [5]. Also, the “Herbicidal rate (%) Scirpus juncoides” value in assay [3] and in assay [6] was 90% in each case. For the same compound, the “herbicidal effect (herbicidal rate), southern crabgrass” value (“herbicidal effect … southern crabgrass” below) in assay [7] came to 40%. Also, in [8], the “herbicidal effect (herbicidal rate), Chenopodium album” value (“herbicidal effect … Chenopodium album” below) is reported as 60%. In addition, in [9], the “herbicidal effect (herbicidal rate), Amaranthus viridis” value (shortened to “herbicidal effect … Amaranthus viridis”) worked out at 40%. In addition, the “herbicidal effect (herbicidal rate), Echinochloa crus-galli” value in assay [10] is recorded as 0%.

As for `Cc1c(Cc2ccccc2NS(=O)(=O)C(F)(F)F)c(=O)on1CC(F)(F)F` [Compound 1-134], the entries for the “Herbicidal rate (%) Lindernia pyxidaria” value in assay [1] and in [4] were 40% and 60%, respectively. Also, the “Herbicidal rate (%) Monochoria vaginalis” value in [1] and in assay [4] was 80% each time. The “Herbicidal rate (%) Echinochloa crus-galli” value in [2] and in [5] was 80% in each case. The “Herbicidal rate (%) Scirpus juncoides” value in assay [3] and in assay [6] was 80% throughout. Further, the “herbicidal effect … southern crabgrass” value in assay [7] came out at 60%. Further, the “herbicidal effect … Chenopodium album” value in assay [8] was found to be 40%. Further, the “herbicidal effect … Amaranthus viridis” value in assay [9] was found to be 50%. In addition, in assay [10], the “herbicidal effect (herbicidal rate), Echinochloa crus-galli” value is recorded as 90%.

`Cc1c(Cc2ccccc2N(S(=O)(=O)C(F)(F)F)S(=O)(=O)C(F)(F)F)c(=O)on1CCCl` [Compound 1-983]: the “Herbicidal rate (%) Lindernia pyxidaria” value in assay [1] turned out to be 80%; in assay [4], 90%. The “Herbicidal rate (%) Monochoria vaginalis” value worked out at 80% in assay [1] and 90% in assay [4]. For the same compound, the entries for the “Herbicidal rate (%) Echinochloa crus-galli” value in assay [2] and in assay [5] were 40% and 70%, respectively. The figures for the “Herbicidal rate (%) Scirpus juncoides” value in assay [3] and in assay [6] were 80% and 90%, respectively. Further, the “herbicidal effect … southern crabgrass” value in assay [7] is reported as 40%. For the same compound, the “herbicidal effect … Chenopodium album” value in assay [8] came out at 0%. The “herbicidal effect … Amaranthus viridis” value in assay [9] stood at 40%. Further, the “herbicidal effect (herbicidal rate), Echinochloa crus-galli” value in assay [10] was found to be 60%.

`CSCCn1oc(=O)c(Cc2ccccc2N(S(=O)(=O)C(F)(F)F)S(=O)(=O)C(F)(F)F)c1C` [Compound 1-1002]: the entries for the “Herbicidal rate (%) Lindernia pyxidaria” value in assay [1] and in assay [4] were 60% and 100%, respectively. Also, the “Herbicidal rate (%) Monochoria vaginalis” value in assay [1] was 80%; in assay [4], 100%. Further, the figures for the “Herbicidal rate (%) Echinochloa crus-galli” value in assay [2] and in assay [5] were 90% and 100%, respectively. Also, the “Herbicidal rate (%) Scirpus juncoides” value in assay [3] turned out to be 80%; in [6] it was 100%. Besides, the “herbicidal effect … southern crabgrass” value in assay [7] was found to be 60%. The “herbicidal effect … Chenopodium album” value in assay [8] is on record as 70%. Also, the “herbicidal effect … Amaranthus viridis” value in [9] is listed as 50%. Besides, the “herbicidal effect (herbicidal rate), Echinochloa crus-galli” value in assay [10] amounted to 90%.

For the compound `CSCCn1oc(=O)c(Cc2ccccc2NS(=O)(=O)C(F)(F)F)c1C` [Compound 1-162], the “Herbicidal rate (%) Lindernia pyxidaria” value in assay [1] amounted to 70%; in assay [4], 100%. In addition, the “Herbicidal rate (%) Monochoria vaginalis” value in assay [1] was determined as 80%; in [4], 100%. The results for the “Herbicidal rate (%) Echinochloa crus-galli” value in [2] and in assay [5] were 90% and 100%, respectively. Besides, the “Herbicidal rate (%) Scirpus juncoides” value in assay [3] is 80%; in assay [6], 100%. Further, in [7], the “herbicidal effect … southern crabgrass” value is given as 60%. Also, the “herbicidal effect … Chenopodium album” value in assay [8] was 60%. Moreover, in [9], the “herbicidal effect … Amaranthus viridis” value was determined as 50%. In addition, the “herbicidal effect (herbicidal rate), Echinochloa crus-galli” value in [10] was determined as 90%.

For `Cc1ccc(Cn2oc(=O)c(Cc3ccccc3NS(=O)(=O)C(F)(F)F)c2C)cc1` [Compound 1-191], the “Herbicidal rate (%) Lindernia pyxidaria” value stood at 80% in [1] and 100% in assay [4]. Also, the “Herbicidal rate (%) Monochoria vaginalis” value stood at 80% in assay [1] and 90% in [4]. Further, the “Herbicidal rate (%) Echinochloa crus-galli” value in assay [2] and in [5] was 90% in each case. For the same compound, the “Herbicidal rate (%) Scirpus juncoides” value in assay [3] and in assay [6] was 90% throughout. Further, in [7], the “herbicidal effect … southern crabgrass” value came to 40%. Besides, the “herbicidal effect … Chenopodium album” value in assay [8] is 40%. Moreover, the “herbicidal effect … Amaranthus viridis” value in assay [9] is listed as 80%. The “herbicidal effect (herbicidal rate), Echinochloa crus-galli” value in assay [10] is 90%.

Turning to `CSCCCn1oc(=O)c(Cc2ccccc2N(S(=O)(=O)C(F)(F)F)S(=O)(=O)C(F)(F)F)c1C` [Compound 1-1003], the “Herbicidal rate (%) Lindernia pyxidaria” value in assay [1] stood at 70%; in [4] it was 90%. The “Herbicidal rate (%) Monochoria vaginalis” value in assay [1] was 70%; in assay [4] it was 90%. In addition, the “Herbicidal rate (%) Echinochloa crus-galli” value in [2] and in assay [5] was 100% throughout. The “Herbicidal rate (%) Scirpus juncoides” value in [3] and in assay [6] was 90% each time. Moreover, in [7], the “herbicidal effect … southern crabgrass” value worked out at 40%. In addition, the “herbicidal effect … Chenopodium album” value in [8] was 0%. For the same compound, the “herbicidal effect … Amaranthus viridis” value in assay [9] came out at 40%. In addition, the “herbicidal effect (herbicidal rate), Echinochloa crus-galli” value in assay [10] stood at 60%.

For the compound `Cc1c(Cc2ccccc2NS(=O)(=O)C(F)(F)F)c(=O)on1CCSC(C)C` [Compound 1-166], the “herbicidal rate, southern crabgrass” value in assay [11] is 90%. In addition, the “herbicidal rate, Chenopodium album” value in assay [12] amounted to 60%. Moreover, the “herbicidal rate, Amaranthus viridis” value in assay [13] came to 60%. In addition, the “herbicidal rate, Echinochloa crus-galli” value in assay [14] was 90%. Also, the “Herbicidal rate (%) Lindernia pyxidaria” value in assay [1] and in assay [4] was 90% in each case. In addition, the “Herbicidal rate (%) Monochoria vaginalis” value in assay [1] and in assay [4] was 90% in each case. Moreover, the “Herbicidal rate (%) Echinochloa crus-galli” value in assay [2] and in [5] was 100% each time. Further, the “Herbicidal rate (%) Scirpus juncoides” value in [3] and in assay [6] was 90% each time.

For the compound `Cc1c(Cc2ccccc2NS(=O)(=O)C(F)(F)F)c(=O)on1CC1CC1` [Compound 1-143], the “herbicidal rate, southern crabgrass” value in assay [11] turned out to be 40%. Moreover, the “herbicidal rate, Chenopodium album” value in assay [12] is on record as 0%. Moreover, the “herbicidal rate, Amaranthus viridis” value in assay [13] came to 60%. In [14], the “herbicidal rate, Echinochloa crus-galli” value turned out to be 50%. For the same compound, the “Herbicidal rate (%) Lindernia pyxidaria” value in assay [1] is 70%; in assay [4], 100%. Besides, the “Herbicidal rate (%) Monochoria vaginalis” value in assay [1] is listed as 80%; in assay [4], 100%. Also, the “Herbicidal rate (%) Echinochloa crus-galli” value in assay [2] and in assay [5] was 90% each time. In addition, the “Herbicidal rate (%) Scirpus juncoides” value in assay [3] and in assay [6] was 90% each time.
